From patent US20260217828A1, “IMMUNE CHECKPOINT BLOCKADE THERAPY FOR TREATING STAPHYLOCOCCUS AUREUS INFECTIONS” (priority 2023, published 2026) come the findings set out here.

In the assay the test system is bioluminescent MRSA (USA300 LAC::lux). Kind of assay: Transtibial implant-associated osteomyelitis in C57BL/6 mice, treated with sabatolimab or saline placebo. The assay is classed as in vivo, Staphylococcus aureus. The note with it: vs saline placebo. The procedure:
(FIG. 7A) Schematic illustration of the experimental design. 8-week-old C57BL/6 mice were subjected to transtibial implant-associated osteomyelitis using bioluminescent MRSA (USA300 LAC::lux) and treated with sabatolimab or a saline placebo control. The concentration of anti-TIM-3 mAb used in the study is also outlined.
Similar assays were carried out to examine the efficacy trend of immune checkpoint blockade drug Sabatolimab (anti-TIM-3) in reducing S. aureus burden due to implant-associated osteomyelitis.
Briefly, 8-week-old C57BL/6 mice were subjected to transtibial implant-associated osteomyelitis using bioluminescent MRSA (USA300 LAC::lux). The mise were then treated with sabatolimab or a saline placebo control. The concentration of anti-TIM-3 mAb used in the study was also outlined in FIG. 7A.

In the case of “sabatolimab: immune checkpoint blockade drug Sabatolimab (anti-TIM-3)”, the “in vivo S. aureus growth (longitudinal BLI)” value (8-week-old C57BL/6 mice, MRSA USA300 LAC::lux, n=9-10, ANOVA p<0.05) is recorded as “significantly decreased”. The “disease severity by terminal ex vivo CFU on the tibia and internal organs (heart, liver, kidneys, and spleen)” value (C57BL/6 mice, day 14 post-surgery, n=9-10, t-test p<0.05) is given as “lower disease severity”.
